Measurements published in patent US12624013B2, “Purification of 2,5-furandicarboxylic acid, dimethyl ester and other esterified products” (Archer Daniels Midland Company, priority 2020, dated 2026).

Assays:
Assay type in all cases: physicochemical
[1] = Room temperature solubility of FDME in methanol; conditions: content of mother liquor
Description: The combination of filtration with diatomaceous earth and crystallization was investigated for its effectiveness in purifying a crude composition of FDME, having weight percentages of individual compounds as described in Example 1. A 105 gram sample of this crude composition was ground and dissolved in 700 ml of methanol to provide a 15 wt-% stock solution of the crude composition, which was maintained at 55° C. in a water bath with shaking. A 300 gram portion of this stock solution was removed and diluted to 2 wt-% dissolved solids, or approximately the room temperature solubility, and filtered on a 2″ diatomaceous earth (DE) filter using a Buchner funnel. Following this DE filtration, the solution was concentrated back to 20 wt-% in a crystallizer using a vacuum pump to evaporate the methanol solvent. […] Stirring at 100 rpm was maintained during the cooling, and the particle size distribution was determined in real time. […] It was determined that a 2-hour residence time at 35° C. and subsequent cooling to 30° C. leads to significant nucleation. […]
The solids from crystallization were emptied onto a Buchner funnel filter, and the crystals were sprayed with room temperature methanol. […] Following this single stage of crystallization, 67% of the FDME from the crude composition was recovered in the purified composition, which was determined to be 99.05 wt-% FDME and 0.86 wt-% FDMME. […]

[2] = Solubility of FDME in various solvents (sonicated 15 minutes at 35° C.); conditions: for Solubility remarks / FDME solubility limits: 35° C.
Description: An impure solid FDME sample, obtained from the esterification of FDCA with methanol, was determined to have 82.6 wt-% FDME (dimethyl ester), in addition to 10.4 wt-% of the monomethyl ester, FDMME, resulting from incomplete esterification. The sample also contained 0.35 wt-% of the FDCA starting compound and 0.58 wt-% of the aldehyde contaminant, FFME. In separate solubility studies with different solvents, various amounts of this sample were charged to a scintillation vial, and in each case 10 ml of solvent was added.

[3] = Storage stability of purified FDME crystals in ambient air; conditions: 3.5 years
Description: A 200 gram sample of a dried, impure mixture (crude composition comprising FDME) obtained from the esterification of FDCA with methanol to FDME was added to a 500 ml Erlenmeyer flask equipped with a PTFE magnetic stir bar. This solid composition was determined by UPLC-PDA to be 80 wt-% FDME, 18 wt-% FDMME, and 2 wt-% FDCA. Approximately 100 ml of methylene chloride was added to the flask, followed by 100 ml of 5 wt-% sodium bicarbonate. The biphasic solution was vigorously stirred for 30 minutes and transferred to a 1 liter separatory flask, which was used to remove the bottom organic phase. The top aqueous phase was extracted 2 times with additional extraction quantities, 30 ml each, of methylene chloride. These additional extraction quantities were combined with the organic phase, and the combined liquids were transferred to a 500 ml Wheaton bottle and placed in the freezer overnight. […] The retained crystals were dried with a stream of argon for 1 hour, determined to have a weight of 58.7 grams, and then stored in a 250 ml Wheaton bottle. A purity analysis of the crystals of the purified composition was carried out by quantitative ^1H NMR, indicating these to be 99.98 wt-% pure. The crystals were stored in ambient air and in a bottle on a tabletop.

[4] = CIE 1976 (L*a*b*) colorimetry of stored purified FDME composition; conditions: after storage over 3 years in ambient air
Description: In this regard, the color of the purified FDME composition was evaluated quantitatively by determining its chromaticity coordinates in the L*a*b* color space. This refers to a particular color space of different color systems of the CIE, or Commission Internationale de l'Echairage (International Commission of Illumination), which color systems were developed as a way to standardize color, or express color values numerically, and thereby remove the subjectivity of the human observer. The CIE 1976 (L*a*b*) color space is based on the opponent-colors theory of color vision, according to which two colors cannot be both green and red at the same time, nor blue and yellow at the same time. Therefore, single values can be used to describe the red/green and the yellow/blue attributes of a sample. In this regard, when a color is expressed using the L a*b* color space, the respective coordinates of L*, a*, and b* denote lightness, the red/green value, and the yellow/blue value, with these coordinates ranging from −100 to +100. For purposes of characterizing compositions described herein with respect to yellow color, the value of b* is particularly relevant. The assessment of the L*, a*, and b* coordinates of the purified FDME composition was performed using a commercially available colorimeter from Konica Minolta, model CM-5.
(§1) To prepare a first sample, Sample #1, of the purified FDME composition for color analysis, a 0.597 gram portion of the composition was dissolved in 9.414 grams of a solvent mixture of 1:1 (v/v) acetonitrile/isopropanol, such that Sample #1 contained 5.96 wt-% of the dissolved composition. A second sample, Sample #2 was prepared by dissolving a 0.592 gram portion of the composition in 9.406 grams of this solvent, such that Sample #2 contained 5.92 wt-% of the dissolved composition. For each sample having a target concentration of 6 wt-% dissolved solids, two CIE 1976 (L*a*b*) colorimetry measurements and two APHA measurements were performed.

[5] = APHA color (ASTM D1209) of stored purified FDME composition; conditions: Average of Samples #1 and #2, two measurements each; after storage over 3 years in ambient air
Description: Another color measurement, which is referred to as APHA color, was also determined for the purified FDME composition according to ASTM D1209. APHA color is also known as the Hazen scale, as well as the platinum cobalt (Pt/Co) scale. APHA is a color standard named for the American Public Health Association that was originally intended to describe the color of wastewater, but its usage has expanded to include other applications. APHA color is a color scale sometimes referred to as a “yellowness index” that is used to assess the quality of liquids that are clear to yellowish in color.
as §1

[6] = Average of Samples #1 and #2, two measurements each
[7] = single measurements, about 6 wt-% in 1:1 (v/v) acetonitrile/isopropanol

## COC(=O)c1ccc(C(=O)OC)o1 [FDME, 2,5-furandicarboxylic acid, dimethyl ester]
[1]
  Room temperature solubility in methanol: approximately 2 wt-%
[2]; in methylene chloride, acetonitrile, N,N′-dimethylformamide, 1,4-dioxane, 1,1,2,2-tetrachloroethane, ethyl acetate, tetrahydrofuran, pyridine, acetone, dimethyl sulfoxide
  Solubility of crude compositions, summary in words: favorable solubility
[2]; solvent 1,1,2,2-tetrachloroethane
  Solubility remarks: Very soluble
[2]; solvent 1,1,2,2-tetrachloroethane, impure FDME sample (82.6 wt-% FDME)
  FDME solubility limits: 23-27 wt-%
[2]; solvent 1,3-Propanediol
  FDME solubility limits: <8 wt-%
  Solubility remarks: Insoluble
[2]; solvent 1,4-Dioxane
  FDME solubility limits: 23-28 wt-%
  Solubility remarks: Very soluble
[2]; solvent Acetone
  FDME solubility limits: 12-20 wt-%
  Solubility remarks: Soluble
[2]; solvent Acetonitrile
  FDME solubility limits: >39 wt-%
  Solubility remarks: Exceptionally soluble
[2]; solvent Dimethyl sulfoxide
  FDME solubility limits: 9-13 wt-%
  Solubility remarks: Soluble
[2]; solvent Ethanol
  FDME solubility limits: <10 wt-%
  Solubility remarks: Insoluble
[2]; solvent Ethyl Acetate
  FDME solubility limits: 18-25 wt-%
  Solubility remarks: Very soluble
[2]; solvent Ethylene Glycol
  FDME solubility limits: <8 wt-%
  Solubility remarks: Insoluble
[2]; solvent Methanol
  FDME solubility limits: <11 wt-%
  Solubility remarks: Insoluble
[2]; solvent Methyl-t-butyl ether
  FDME solubility limits: <10 wt-%
  Solubility remarks: Insoluble
[2]; solvent Methylene Chloride
  FDME solubility limits: 27-31 wt-%
  Solubility remarks: Very soluble
[2]; solvent N,N′-dimethylformamide
  FDME solubility limits: 30-35 wt-%
  Solubility remarks: Very soluble
[2]; solvent Pyridine
  FDME solubility limits: 17-23 wt-%
  Solubility remarks: Very soluble
[2]; solvent THF
  FDME solubility limits: 17-23 wt-%
  Solubility remarks: Very soluble
[2]; solvent Toluene
  FDME solubility limits: <10 wt-%
  Solubility remarks: Insoluble
[3]; crystals initially 99.98 wt-% pure, stored in ambient air in a bottle on a tabletop
  Purity on storage (stability): maintained
[3]; stored in ambient air
  Appearance on storage (color stability, flow): very little development of off-white color
[4]; [6]
  L*: 99.43
  a*: −0.01
  b*: 0.39
[4]; [7]
  L*: > 99
  a*: < 0.5
  b*: < 0.5
[5]
  Hazen/APHA: 12
